Laboratory results as given in article PMC11650849, “Brain endothelial permeability, transport, and flow assessed over 10 orders of magnitude using the in situ brain perfusion technique” (Fluids and Barriers of the CNS, 2024).
Where two headings read alike, the source gives them in different places.

Assays:
[1] = In situ rat brain perfusion (brain uptake Kin, extraction E, BBB PS)
[2] = cited from earlier work; for Log Poct: octanol partition coefficient
[3] = cited from earlier work
[4] = for Extraction (unbound) / Brain vascular extraction (total): calculated at brain blood flow […]; for Extraction (unbound): free drug; for Brain vascular extraction (total): with rat serum fu; for Brain Kin: calculated at brain blood flow […] and rat serum fu
[5] = Neutral fraction at pH 7.4 calculated from pKa; format: physicochemical; settings: neutral fraction at perfusion fluid pH 7.40, calculated from pKa
[6] = rat
[7] = rat, in vivo
[8] = facilitated nutrients, transporter not given
[9] = ref Hansch et al. [123], Avdeef [46] or other sources

N[C@@H](CCC(=O)O)C(=O)O [L-Glutamate]
Log PS [1, 8]: −3.82
PS [1, 8]: 0.000151 mL/s/g

CC(=O)N[C@@H](CS)C(=O)O [N-acetyl-cysteine]
Log Doct pH=7.4 [2]: −3.70
fu,.p ([3]; rat in vivo measurements): 1.00
Extraction (unbound) [4]: 7.60E-05%
Brain vascular extraction (total) [4]: 7.60E-05%
Log Pc ([1]; Pc in cm/s): −7.74
Log Po ([1]; Po in cm/s): −7.74
Log PoS ([1]; PoS in mL/s/g): −5.74
Pc ([1]; S assumed 100 cm^2/g): 0.0182 ×10⁻⁶ cm/s
PoS ([1]; brain vascular intrinsic PoS): 1.82e-06 mL/s/g
PcS ([1]; cerebral cortex, flow 0.1–[…], S = physiological saline, AB = artificial blood): 1.82e-06 mL/s/g

COc1ccc2cc([C@H](C)C(=O)O)ccc2c1 [Naproxen]
fn (%) [5]: 0.05%

NC(=O)c1cccnc1 [Nicotinamide]
Log Poct [2, 9]: −0.34
Log Doct pH=7.4 [2, 9]: −0.34
fn (%) [5]: 100%

O=C1Nc2ccc(Cl)cc2C(c2ccccc2)=NC1O (centres unmarked) [Oxazepam]
fu,.p ([3]; rat): 0.17
fn (%) [5]: 100%

CCC1(c2ccccc2)C(=O)NC(=O)NC1=O [Phenobarbital]
Log Poct [2, 9]: 1.53
Log Doct pH=7.4 [2, 9]: 1.51
fu,.p ([3]; rat in vivo measurements): 0.25
half-life [6]: 7.39 min
fn (%) [5]: 47.7%
Log Pc ([7]; pH 7.4): −4.19
Log PoS ([7]; pH 7.4): −1.86
Pc ([7]; pH 7.4): 65.1 ×10⁻⁶ cm/s
PcS ([7]; pH 7.4): 0.0065 mL/s/g
PoS ([7]; pH 7.4): 0.0136 mL/s/g
Log Po ([7]; pH 7.4): −3.86
Po ([7]; pH 7.4): 0.000136 cm/s

CCCO [Propanol]
fu,.p ([3]; rat): 0.74
fn (%) [5]: 100%

O=C(O)c1cccnc1C(=O)O [Quinolinic acid]
Log Poct [2, 9]: −1.44
Log Doct pH=7.4 [2, 9]: −4.08
fu,.p ([3]; rat in vivo measurements): 1.00
Brain Kin [4]: 0.00019 mL/s/g
Extraction (unbound) [4]: 0.01%
Brain vascular extraction (total) [4]: 0.0071%
Log Pc ([7]; pH 7.4): −7.77
Log PoS ([7]; pH 7.4): −3.13
Pc ([7]; pH 7.4): 0.017 ×10⁻⁶ cm/s
PcS ([7]; pH 7.4): 1.7e-06 mL/s/g
PoS ([7]; pH 7.4): 0.000743 mL/s/g
Log Po ([7]; pH 7.4): −5.13
Po ([7]; pH 7.4): 7.43e-06 cm/s

CN1C(=O)C(O)N=C(c2ccccc2)c2cc(Cl)ccc21 (centres unmarked) [Temazepam]
fu,.p ([3]; rat): 0.18
fn (%) [5]: 100%

Cn1c(=O)c2[nH]cnc2n(C)c1=O [Theophylline]
Log Poct [2, 9]: 0.00
Log Doct pH=7.4 [2, 9]: 0.00
half-life ([6]; brain): 4.6 min
fn (%) [5]: 100%

CCCCNC(=O)NS(=O)(=O)c1ccc(C)cc1 [Tolbutamide]
half-life ([6]; brain): 3.27 min
fn (%) [5]: 0.61%

Cc1nnc2n1-c1ccc(Cl)cc1C(c1ccccc1Cl)=NC2 [Triasolam]
fn (%) [5]: 100%

NC(N)=O [Urea]
Log Poct [2, 9]: −1.66
Log Doct pH=7.4 [2, 9]: −1.66
fu,.p ([3]; rat in vivo measurements): 1.00
fn (%) [5]: 100%

O [Water]
Log Poct [2, 9]: −0.59
Log Doct pH=7.4 [2, 9]: −0.59
fu,.p ([3]; rat in vivo measurements): 1.00
Brain Equilibration t1/2, Calculated ([4]; plasma): 0.81 min
BBB PcS [7]: 0.029 mL/s/g
Brain Equilibration t1/2, Measured [7]: 1 min
Kin Underestimate (linear regression vs two compartment model) [7]: 54%
Log Pc [7]: −3.54
Log PoS [7]: −1.54
Pc [7]: 287 ×10⁻⁶ cm/s
PcS [7]: 0.029 mL/s/g
PoS [7]: 0.0287 mL/s/g
Log Po [7]: −3.54
Po [7]: 0.000287 cm/s

CC(C)(C)OC(=O)CCCc1ccc(N(CCCl)CCCl)cc1 [t-butyl chlorambucil]
Log Poct [2, 9]: 5.24
Log Poct ([2]; ref Hansch et al. [123], Avdeef [46] or other sources, listed as t-butyl-chlorambucil): 5.2
Log Doct pH=7.4 [2, 9]: 5.24
fu,.p ([3]; rat in vivo measurements): 2.0E−03
Maximal flow—90% extraction, PcS/2.3 ([4]; pH 7.4): 14.0 mL/s/g
fn (%) [5]: 100%
Brain Extraction (%) [7]: 24%
Log Pc [7]: −0.49
Log PoS [7]: 1.51
Pc [7]: 321000 ×10⁻⁶ cm/s
PcS [7]: 32.1 mL/s/g
PoS [7]: 32.1 mL/s/g
Log Po [7]: −0.49
Po [7]: 0.32 cm/s

Erythrosine B
Log Doct pH=7.4 [2]: −0.15
fu,.p ([3]; rat): 0.01
Brain Kin [4]: 6.53e-06 mL/s/g
Extraction (unbound) [4]: 2.7%
Brain vascular extraction (total) [4]: 0.027%
fn (%) [5]: 7.8E−06%
Log Pc [7]: −5.19
Log PoS [7]: 3.92
Pc [7]: 6.53 ×10⁻⁶ cm/s
PcS [7]: 0.00065 mL/s/g
Log Po [7]: 1.92
Po [7]: 83.48 cm/s
